Source: PubChem BioAssay (NCI)
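Tested at 5 concentrations; 48 h exposure; 96-well plates; endpoints linearly interpolated, else capped at highest concentration. Here, GI50 denotes the concentration required for 50% inhibition of growth. TGI denotes the concentration required for complete inhibition of growth.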

Tests used:
Experiment in all cases: NCI anticancer screen, dose series, 48 h
[1] = system: CAKI-1 renal
[2] = system: HCT-116 colon
[3] = system: NCI-H522 lung
[4] = system: OVCAR-3 ovarian
[5] = system: OVCAR-4 ovarian
[6] = system: OVCAR-8 ovarian
[7] = system: SF-268 CNS
[8] = system: SF-539 CNS
[9] = system: U251 CNS
[10] = system: UACC-257 melanoma

Row | SMILES | TGI [1] [µM] | TGI [2] [µM] | TGI [3] [µM] | TGI [4] [µM] | TGI [5] [µM] | TGI [6] [µM] | TGI [7] [µM] | TGI [8] [µM] | TGI [9] [µM] | TGI [10] [µM] | GI50 [1] [µM] | GI50 [2] [µM] | GI50 [3] [µM] | GI50 [4] [µM] | GI50 [5] [µM] | GI50 [6] [µM] | GI50 [7] [µM] | GI50 [8] [µM] | GI50 [9] [µM] | GI50 [10] [µM]
1 | CC1(C)C2C/C(=C\c3ccccc3)C(=O)C1C2 (stereo not given) | > 100 | > 100 | > 100 | > 100 | > 100 | > 100 | > 100 | > 100 | > 100 | > 100 |  |  |  |  |  |  |  |  |  | 
2 | OC(CNc1ccnc2cc(Cl)ccc12)CNC1CCCCC1 (stereo not given) | 4.05 | 16.7 | 6.55 | 34.7 | 23.8 | 19.9 | 21.9 | 3.38 | 5.37 | 3.33 | 1.84 | 4.66 | 2.72 | 15 | 3.6 | 5.07 | 8.23 | 1.76 | 2.14 | 1.78
3 | OC(CNC1CCCC1)Cn1c2ccccc2c2ccccc21 (stereo not given) | > 100 | > 100 | 82.2 | > 100 | > 100 | > 100 | 80.4 | 82.9 | 56.6 | > 100 | > 100 | 67.3 | 20 | 51.3 | > 100 | 27.6 | 27 | 24.4 | 21.5 | > 100
4 | N#CC1=C(N)Oc2c(sc3c(F)cccc23)C1c1ccc(F)cc1 (stereo not given) | 15.9 | 13 | 10.8 | 1.88 | 16.6 | 22.5 | 15.3 | 2.67 | 15.3 | 39.5 | 0.508 | 0.492 | 0.473 | 0.363 | 2.03 | 1.61 | 1.13 | 0.447 | 0.569 | 16.6
5 | C=C1CC[C@@H]2[C@](C)(COC(C)=O)[C@H](OC(C)=O)CC[C@@]2(C)[C@@H]1C/C=C1/C(=O)OC[C@H]1OC(C)=O | 19.6 | 2.98 | 3.63 | 4.21 | 15.4 | 22 | 22.8 | 3.22 | 19.3 | 19.9 | 6.67 | 1.45 | 1.52 | 2.17 | 3.57 | 3.38 | 8.56 | 1.7 | 6.09 | 6.2
6 | O=C1C(=O)c2ccccc2C(O)=C1CCCCCCCCC1CCCCC1 | 57 | 12.3 | 25.7 | 26.5 | > 100 | 29.5 | 22.6 | 22.4 | 17.8 | 72.8 |  |  |  |  |  |  |  |  |  | 
7 | CN1CCn2c(c(Sc3ccc(C(=O)NO)cc3)c3ccccc32)C1=O | 11 | 3.55 | 2.66 | 4.33 | 9.99 | 6.71 | 3.85 | 3.48 | 4 | 3.56 | 3.86 | 1.59 | 1.13 | 1.87 | 2.14 | 1.92 | 1.92 | 1.56 | 1.79 | 1.51
8 | COc1cc(/C=C2/C(=O)NC(Cc3cc(OC)c(OC)c(C)c3OC)C(=O)N2Cc2ccccc2)c(OC)c(C)c1OC (stereo not given) | > 100 | > 100 | 60.2 | > 100 | > 100 | > 100 | > 100 | > 100 | > 100 | > 100 |  |  |  |  |  |  |  |  |  | 
9 | COCCNC(=O)c1ccc(-c2nc3ccc4[nH]ncc4c3c3c2CCCC3)cc1 | 7.29 | > 100 | 12.4 | 37.3 | 72.9 | > 100 | 39.7 | 8.01 | > 100 | > 100 | 0.689 | 1.2 | 1.92 | 3.85 | 4.59 | 2.64 | 2.22 | 1.71 | 2.6 | 5.38
10 | COc1cc(/C=C/C(=O)c2c(C)n([O-])c3ccc(Cl)cc3[n+]2=O)cc(OC)c1OC | > 100 | > 100 | > 100 | > 100 | > 100 | 33.4 | > 100 | 52.6 | > 100 | > 100 | > 100 | 76 | > 100 | > 100 | > 100 | 11.8 | 15.4 | 25.4 | 34.4 | 49.6
11 | [C-]#[N+]C(C)(C)C[C@H]1CC(C)C2CCC(C)C3([N+]#[C-])CCC(=C)C1[C@H]23 (stereo not given in full) | 20.1 | 6.6 | 12.2 | 14.1 | 13.1 | 9.22 | 10.5 | 13.7 | 11.8 | 10.9 |  |  |  |  |  |  |  |  |  | 
12 | CS/C(c1ccccc1)=[N+](/C)[O-] | > 100 | > 100 | > 100 | > 100 | > 100 | > 100 | > 100 | > 100 | > 100 | > 100 |  |  |  |  |  |  |  |  |  | 
13 | Cc1ccc(N2C(=O)/C(=C/c3ccc(N(CCC#N)CCC#N)cc3C)N=C2c2cc([N+](=O)[O-])ccc2Cl)cc1 | > 100 | > 100 | > 100 | > 100 | > 100 | > 100 | > 100 | > 100 | > 100 | > 100 |  |  |  |  |  |  |  |  |  | 
14 | O=C(/C=C/c1ccc(C(F)(F)F)cc1)c1ccc(Nc2nc(NCCO)nc(N3CCOCC3)n2)cc1 | 15.6 | 2.74 | 5.04 | 3.79 | 10.2 | 12.4 | 11.1 | 3.06 | 3.38 | 17.8 | 2.54 | 1.43 | 1.85 | 1.96 | 3.05 | 3.25 | 2.68 | 1.64 | 1.63 | 3.98
